Measured values reported in ChEMBL document CHEMBL4507289, “Data for DCP probe GSM1” (2021).

Columns and labels:
[1] = biological target: Alpha-2C adrenergic receptor (Homo sapiens) (UniProt P18825); settings: Compound concentration 10.0 uM
[2] = biological target: Tyrosine-protein kinase Fer (Homo sapiens) (UniProt P16591); settings: Compound concentration 1000.0 nM
[3] = biological target: Serine/threonine-protein kinase 10 (Homo sapiens) (UniProt O94804); settings: Compound concentration 1000.0 nM
[4] = biological target: Serine/threonine-protein kinase mTOR (Homo sapiens) (UniProt P42345); settings: Compound concentration 1000.0 nM
[5] = biological target: Tyrosine-protein kinase TXK (Homo sapiens) (UniProt P42681); settings: Compound concentration 1000.0 nM
[6] = biological target: Calcium/calmodulin-dependent protein kinase type 1G (Homo sapiens) (UniProt Q96NX5); settings: Compound concentration 1000.0 nM
[7] = biological target: Leukocyte tyrosine kinase receptor (Homo sapiens) (UniProt P29376); settings: Compound concentration 1000.0 nM
[8] = system: Receptor-type tyrosine-protein kinase FLT3 (Homo sapiens), P36888 [D835V]; settings: Compound concentration 1000.0 nM
[9] = biological target: 5-hydroxytryptamine receptor 1A (Homo sapiens) (UniProt P08908); settings: Compound concentration 10.0 uM
[10] = system: Epidermal growth factor receptor (Homo sapiens), P00533 [UNDEFINED MUTATION]; settings: Compound concentration 1000.0 nM
[11] = system: Tyrosine-protein kinase ABL1 (Homo sapiens), P00519 [Y253F]; settings: Compound concentration 1000.0 nM
[12] = biological target: Serine/threonine-protein kinase STK11 (Homo sapiens) (UniProt Q15831); settings: Compound concentration 1000.0 nM
[13] = system: Receptor-type tyrosine-protein kinase FLT3 (Homo sapiens), P36888 [UNDEFINED MUTATION]; settings: Compound concentration 1000.0 nM
[14] = biological target: Glycogen synthase kinase-3 alpha (Homo sapiens) (UniProt P49840); settings: Compound concentration 1000.0 nM
[15] = biological target: Serine/threonine-protein kinase 32A (Homo sapiens) (UniProt Q8WU08); settings: Compound concentration 1000.0 nM
[16] = biological target: Dual specificity testis-specific protein kinase 1 (Homo sapiens) (UniProt Q15569); settings: Compound concentration 1000.0 nM
Sequence of Dual specificity testis-specific protein kinase 1 (Homo sapiens) (Q15569 whole entry, looked up, canonical isoform): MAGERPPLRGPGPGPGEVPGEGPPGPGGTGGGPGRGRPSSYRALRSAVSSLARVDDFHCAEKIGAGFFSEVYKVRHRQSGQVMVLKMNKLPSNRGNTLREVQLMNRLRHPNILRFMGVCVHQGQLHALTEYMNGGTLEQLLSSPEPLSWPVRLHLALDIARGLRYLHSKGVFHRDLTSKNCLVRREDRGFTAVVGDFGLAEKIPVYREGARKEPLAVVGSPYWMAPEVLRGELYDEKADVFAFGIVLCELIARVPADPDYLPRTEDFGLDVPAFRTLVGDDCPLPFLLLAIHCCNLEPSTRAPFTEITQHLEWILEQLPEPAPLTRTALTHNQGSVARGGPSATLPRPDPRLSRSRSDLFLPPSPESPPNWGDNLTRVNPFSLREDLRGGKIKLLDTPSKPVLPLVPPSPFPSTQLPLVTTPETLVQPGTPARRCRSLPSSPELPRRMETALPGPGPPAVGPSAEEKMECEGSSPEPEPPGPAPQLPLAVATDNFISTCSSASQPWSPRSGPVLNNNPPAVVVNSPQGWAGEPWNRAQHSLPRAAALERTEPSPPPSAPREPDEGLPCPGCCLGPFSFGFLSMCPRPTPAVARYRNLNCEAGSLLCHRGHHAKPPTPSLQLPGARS

[17] = system: Phosphatidylinositol 4,5-bisphosphate 3-kinase catalytic subunit alpha isoform (Homo sapiens), P42336 [E542K]; settings: Compound concentration 1000.0 nM
[18] = biological target: Vascular endothelial growth factor receptor 3 (Homo sapiens) (UniProt P35916); settings: Compound concentration 1000.0 nM
Sequence of Vascular endothelial growth factor receptor 3 (Homo sapiens) (P35916 whole entry, canonical isoform): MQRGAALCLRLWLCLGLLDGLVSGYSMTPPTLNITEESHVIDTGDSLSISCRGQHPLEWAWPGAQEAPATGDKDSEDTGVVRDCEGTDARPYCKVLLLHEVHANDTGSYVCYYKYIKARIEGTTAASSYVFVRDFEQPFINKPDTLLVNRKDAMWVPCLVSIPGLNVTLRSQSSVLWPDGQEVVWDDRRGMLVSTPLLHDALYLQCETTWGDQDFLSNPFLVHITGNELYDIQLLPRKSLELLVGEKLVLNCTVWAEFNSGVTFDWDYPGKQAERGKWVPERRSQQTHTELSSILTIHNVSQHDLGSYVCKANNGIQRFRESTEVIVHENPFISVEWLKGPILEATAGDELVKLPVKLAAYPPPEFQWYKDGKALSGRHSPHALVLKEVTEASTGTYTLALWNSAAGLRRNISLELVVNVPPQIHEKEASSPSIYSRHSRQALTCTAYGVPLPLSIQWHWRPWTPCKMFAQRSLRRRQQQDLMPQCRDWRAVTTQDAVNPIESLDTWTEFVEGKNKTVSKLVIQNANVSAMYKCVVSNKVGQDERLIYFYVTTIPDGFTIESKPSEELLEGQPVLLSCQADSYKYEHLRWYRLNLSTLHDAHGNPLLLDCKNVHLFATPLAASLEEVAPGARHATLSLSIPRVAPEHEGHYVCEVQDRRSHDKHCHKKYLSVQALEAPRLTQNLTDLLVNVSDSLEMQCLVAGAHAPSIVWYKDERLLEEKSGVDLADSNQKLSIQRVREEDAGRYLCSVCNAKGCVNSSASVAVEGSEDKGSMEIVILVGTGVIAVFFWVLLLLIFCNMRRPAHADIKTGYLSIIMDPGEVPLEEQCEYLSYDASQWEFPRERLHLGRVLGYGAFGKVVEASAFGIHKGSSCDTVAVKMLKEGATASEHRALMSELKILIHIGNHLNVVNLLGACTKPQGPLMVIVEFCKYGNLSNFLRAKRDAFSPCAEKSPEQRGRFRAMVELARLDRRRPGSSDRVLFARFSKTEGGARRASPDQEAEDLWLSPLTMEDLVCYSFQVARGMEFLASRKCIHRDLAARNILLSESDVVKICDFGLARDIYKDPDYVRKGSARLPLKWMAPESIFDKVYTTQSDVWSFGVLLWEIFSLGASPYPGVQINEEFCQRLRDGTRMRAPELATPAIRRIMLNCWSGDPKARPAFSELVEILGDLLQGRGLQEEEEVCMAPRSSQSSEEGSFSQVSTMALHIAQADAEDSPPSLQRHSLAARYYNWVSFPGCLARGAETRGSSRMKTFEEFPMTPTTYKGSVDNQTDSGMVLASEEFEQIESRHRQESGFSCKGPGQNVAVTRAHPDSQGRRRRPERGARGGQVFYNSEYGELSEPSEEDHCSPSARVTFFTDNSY

[19] = biological target: Casein kinase I isoform gamma-1 (Homo sapiens) (UniProt Q9HCP0); settings: Compound concentration 1000.0 nM
[20] = biological target: Dual specificity mitogen-activated protein kinase kinase 5 (Homo sapiens) (UniProt Q13163); settings: Compound concentration 1000.0 nM
[21] = biological target: Bone morphogenetic protein receptor type-1A (Homo sapiens) (UniProt P36894); settings: Compound concentration 1000.0 nM
[22] = biological target: Serine/threonine-protein kinase SBK1 (Homo sapiens) (UniProt Q52WX2); settings: Compound concentration 1000.0 nM
[23] = biological target: Tyrosine-protein kinase Srms (Homo sapiens) (UniProt Q9H3Y6); settings: Compound concentration 1000.0 nM
[24] = biological target: Serine/threonine-protein kinase OSR1 (Homo sapiens) (UniProt O95747); settings: Compound concentration 1000.0 nM
[25] = biological target: Cyclin-dependent kinase 8 (Homo sapiens) (UniProt P49336); settings: Compound concentration 1000.0 nM
[26] = biological target: Macrophage colony-stimulating factor 1 receptor (Homo sapiens) (UniProt P07333); settings: Compound concentration 1000.0 nM
Notch receptor = Notch receptor (Homo sapiens, UniProt P46531+Q9UM47+Q04721+Q99466); experiment: Notch assay; assay type: protein assay
[27] = biological target: Serine/threonine-protein kinase SIK1 (Homo sapiens) (UniProt P57059); settings: Compound concentration 1000.0 nM
[28] = biological target: Serine/threonine-protein kinase Chk2 (Homo sapiens) (UniProt O96017); settings: Compound concentration 1000.0 nM
[29] = biological target: Serine/threonine-protein kinase VRK2 (Homo sapiens) (UniProt Q86Y07); settings: Compound concentration 1000.0 nM
Sequence of Serine/threonine-protein kinase VRK2 (Homo sapiens) (Q86Y07 whole entry): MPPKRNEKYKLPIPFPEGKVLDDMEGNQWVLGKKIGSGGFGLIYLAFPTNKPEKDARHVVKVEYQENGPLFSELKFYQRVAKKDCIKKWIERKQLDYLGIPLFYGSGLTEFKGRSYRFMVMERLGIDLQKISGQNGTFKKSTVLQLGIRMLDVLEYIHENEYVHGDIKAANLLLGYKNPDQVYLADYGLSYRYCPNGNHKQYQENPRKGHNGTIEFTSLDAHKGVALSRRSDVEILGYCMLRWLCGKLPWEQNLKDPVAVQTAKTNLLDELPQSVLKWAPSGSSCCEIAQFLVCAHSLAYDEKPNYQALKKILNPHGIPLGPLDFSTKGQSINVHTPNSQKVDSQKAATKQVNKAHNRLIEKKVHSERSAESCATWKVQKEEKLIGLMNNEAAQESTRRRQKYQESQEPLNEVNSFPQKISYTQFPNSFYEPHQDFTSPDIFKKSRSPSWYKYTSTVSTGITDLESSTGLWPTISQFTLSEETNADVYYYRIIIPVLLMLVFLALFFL

[30] = biological target: SRSF protein kinase 1 (Homo sapiens) (UniProt Q96SB4); settings: Compound concentration 1000.0 nM
[31] = biological target: Hormonally up-regulated neu tumor-associated kinase (Homo sapiens) (UniProt P57058); settings: Compound concentration 1000.0 nM
[32] = biological target: Serine/threonine-protein kinase Chk1 (Homo sapiens) (UniProt O14757); settings: Compound concentration 1000.0 nM
[33] = biological target: Serine/threonine-protein kinase BRSK2 (Homo sapiens) (UniProt Q8IWQ3); settings: Compound concentration 1000.0 nM
Sequence of Serine/threonine-protein kinase BRSK2 (Homo sapiens) (Q8IWQ3 whole entry): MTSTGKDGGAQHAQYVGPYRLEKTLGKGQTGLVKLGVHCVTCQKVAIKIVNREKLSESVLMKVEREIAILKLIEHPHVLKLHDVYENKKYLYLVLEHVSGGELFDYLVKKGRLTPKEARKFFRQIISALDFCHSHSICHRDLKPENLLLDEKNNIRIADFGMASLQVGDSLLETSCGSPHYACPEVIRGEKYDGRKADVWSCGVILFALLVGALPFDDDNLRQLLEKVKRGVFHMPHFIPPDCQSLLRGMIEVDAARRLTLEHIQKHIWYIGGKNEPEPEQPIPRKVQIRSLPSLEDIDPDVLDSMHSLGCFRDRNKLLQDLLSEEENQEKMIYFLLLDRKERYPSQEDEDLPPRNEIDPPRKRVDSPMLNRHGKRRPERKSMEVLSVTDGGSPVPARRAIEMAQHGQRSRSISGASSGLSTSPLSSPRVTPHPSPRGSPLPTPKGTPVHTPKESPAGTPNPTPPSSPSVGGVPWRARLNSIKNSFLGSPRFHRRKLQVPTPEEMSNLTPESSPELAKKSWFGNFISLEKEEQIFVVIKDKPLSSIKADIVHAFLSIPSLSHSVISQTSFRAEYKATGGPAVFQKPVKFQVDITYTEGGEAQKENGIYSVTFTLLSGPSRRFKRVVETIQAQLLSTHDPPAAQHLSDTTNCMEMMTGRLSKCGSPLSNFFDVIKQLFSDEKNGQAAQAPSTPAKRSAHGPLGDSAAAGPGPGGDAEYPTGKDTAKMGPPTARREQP

[34] = biological target: Serine/threonine-protein kinase N1 (Homo sapiens) (UniProt Q16512); settings: Compound concentration 1000.0 nM
[35] = biological target: Tyrosine-protein kinase Lck (Homo sapiens) (UniProt P06239); settings: Compound concentration 1000.0 nM
[36] = biological target: Mitogen-activated protein kinase kinase kinase kinase 4 (Homo sapiens) (UniProt O95819); settings: Compound concentration 1000.0 nM
[37] = biological target: Ephrin type-A receptor 2 (Homo sapiens) (UniProt P29317); settings: Compound concentration 1000.0 nM
Sequence of Ephrin type-A receptor 2 (Homo sapiens) (P29317 whole entry, canonical isoform): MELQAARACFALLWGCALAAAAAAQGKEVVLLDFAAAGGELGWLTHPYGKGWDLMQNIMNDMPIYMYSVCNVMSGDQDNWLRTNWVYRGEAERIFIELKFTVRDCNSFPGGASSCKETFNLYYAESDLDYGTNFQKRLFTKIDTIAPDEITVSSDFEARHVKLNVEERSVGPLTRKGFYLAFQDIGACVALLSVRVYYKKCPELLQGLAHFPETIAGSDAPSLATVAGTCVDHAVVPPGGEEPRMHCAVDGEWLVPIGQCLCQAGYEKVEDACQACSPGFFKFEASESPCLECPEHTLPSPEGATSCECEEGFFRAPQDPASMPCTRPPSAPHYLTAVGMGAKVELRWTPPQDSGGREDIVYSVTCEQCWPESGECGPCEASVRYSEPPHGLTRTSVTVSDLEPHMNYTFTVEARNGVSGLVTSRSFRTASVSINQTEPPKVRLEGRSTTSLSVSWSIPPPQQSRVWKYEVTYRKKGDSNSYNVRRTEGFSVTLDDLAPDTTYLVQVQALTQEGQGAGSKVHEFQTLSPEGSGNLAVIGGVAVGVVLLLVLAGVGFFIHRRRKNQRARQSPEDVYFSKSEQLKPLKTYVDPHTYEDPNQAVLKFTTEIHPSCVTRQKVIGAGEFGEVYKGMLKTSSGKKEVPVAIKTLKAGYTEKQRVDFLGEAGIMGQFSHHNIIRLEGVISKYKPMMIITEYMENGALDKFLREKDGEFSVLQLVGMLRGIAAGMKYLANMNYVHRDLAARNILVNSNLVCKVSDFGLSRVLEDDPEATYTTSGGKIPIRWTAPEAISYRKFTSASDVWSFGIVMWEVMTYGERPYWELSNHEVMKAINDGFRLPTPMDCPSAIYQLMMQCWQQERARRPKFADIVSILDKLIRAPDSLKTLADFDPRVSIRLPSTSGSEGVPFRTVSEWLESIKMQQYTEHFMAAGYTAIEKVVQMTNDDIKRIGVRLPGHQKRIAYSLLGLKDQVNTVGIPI

[38] = biological target: Phosphatidylinositol 4,5-bisphosphate 3-kinase catalytic subunit gamma isoform (Homo sapiens) (UniProt P48736); settings: Compound concentration 1000.0 nM
[39] = biological target: Kappa-type opioid receptor (Homo sapiens) (UniProt P41145); settings: Compound concentration 10.0 uM
[40] = biological target: Protein kinase C eta type (Homo sapiens) (UniProt P24723); settings: Compound concentration 1000.0 nM
Sequence of Protein kinase C eta type (Homo sapiens) (P24723 whole entry): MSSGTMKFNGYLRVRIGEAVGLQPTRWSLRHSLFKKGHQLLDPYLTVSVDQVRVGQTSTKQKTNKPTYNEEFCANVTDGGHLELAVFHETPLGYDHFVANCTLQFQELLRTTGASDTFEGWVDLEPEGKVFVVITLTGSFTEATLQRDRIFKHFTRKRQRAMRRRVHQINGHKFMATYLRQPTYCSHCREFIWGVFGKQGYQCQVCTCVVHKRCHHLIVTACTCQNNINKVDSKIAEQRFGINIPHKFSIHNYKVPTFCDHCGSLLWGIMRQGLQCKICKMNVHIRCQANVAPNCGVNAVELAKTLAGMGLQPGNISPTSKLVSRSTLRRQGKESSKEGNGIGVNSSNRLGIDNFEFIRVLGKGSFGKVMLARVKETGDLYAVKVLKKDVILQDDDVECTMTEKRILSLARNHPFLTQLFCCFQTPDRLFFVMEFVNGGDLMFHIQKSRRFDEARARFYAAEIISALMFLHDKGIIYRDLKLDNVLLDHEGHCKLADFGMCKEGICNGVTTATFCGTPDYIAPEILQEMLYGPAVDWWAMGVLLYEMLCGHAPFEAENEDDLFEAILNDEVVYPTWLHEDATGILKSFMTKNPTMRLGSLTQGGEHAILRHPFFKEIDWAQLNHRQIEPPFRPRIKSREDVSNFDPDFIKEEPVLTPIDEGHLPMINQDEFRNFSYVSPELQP

[41] = biological target: G protein-coupled receptor kinase 3 (Homo sapiens) (UniProt P35626); settings: Compound concentration 1000.0 nM
[42] = biological target: Ephrin type-A receptor 8 (Homo sapiens) (UniProt P29322); settings: Compound concentration 1000.0 nM
[43] = biological target: Cyclin-dependent kinase 15 (Homo sapiens) (UniProt Q96Q40); settings: Compound concentration 1000.0 nM
[44] = system: Receptor-type tyrosine-protein kinase FLT3 (Homo sapiens), P36888 [UNDEFINED MUTATION]; settings: Compound concentration 1000.0 nM; remark: listed apart in the source

COc1cc(-c2cn([C@H]3CCc4ccccc4N(CC(F)(F)F)C3=O)nn2)ccc1-n1ccc(C)n1
inhibition [1]: 9.04%
residual activity [2]: 100%
residual activity [3]: 100%
residual activity [4]: 100%
residual activity [5]: 84%
residual activity [6]: 100%
residual activity [7]: 100%
residual activity [8]: 80%
inhibition [9]: 1.18%
residual activity [10]: 100%
residual activity [11]: 87%
residual activity [12]: 100%
residual activity [13]: 80%
residual activity [14]: 86%
residual activity [15]: 97%
residual activity [16]: 93%
residual activity [17]: 82%
residual activity [18]: 100%
residual activity [19]: 77%
residual activity [20]: 74%
residual activity [21]: 89%
residual activity [22]: 94%
residual activity [23]: 84%
residual activity [24]: 91%
residual activity [25]: 90%
residual activity [26]: 92%
IC50 (Notch receptor): > 50 µM
residual activity [27]: 100%
residual activity [28]: 100%
residual activity [29]: 100%
residual activity [30]: 100%
residual activity [31]: 100%
residual activity [32]: 100%
residual activity [33]: 97%
residual activity [34]: 100%
residual activity [35]: 100%
residual activity [36]: 100%
residual activity [37]: 100%
residual activity [38]: 67%
inhibition [39]: 13.6%
residual activity [40]: 73%
residual activity [41]: 100%
residual activity [42]: 100%
residual activity [43]: 100%
residual activity [44]: 98%

COc1cc(-c2cn([C@H]3CCc4c(F)cccc4N(CC(F)(F)F)C3=O)nn2)ccc1-n1cnc(C)c1
inhibition [1]: 38.3%
residual activity [2]: 100%
residual activity [3]: 100%
residual activity [4]: 100%
residual activity [5]: 100%
residual activity [6]: 100%
residual activity [7]: 100%
residual activity [8]: 97%
inhibition [9]: 19.4%
residual activity [10]: 96%
residual activity [11]: 100%
residual activity [12]: 100%
residual activity [13]: 82%
residual activity [14]: 100%
residual activity [15]: 100%
residual activity [16]: 100%
residual activity [17]: 88%
residual activity [18]: 100%
residual activity [19]: 86%
residual activity [20]: 58%
residual activity [21]: 100%
residual activity [22]: 94%
residual activity [23]: 100%
residual activity [24]: 100%
residual activity [25]: 100%
residual activity [26]: 86%
IC50 (Notch receptor): 397.8 µM
residual activity [27]: 100%
residual activity [28]: 100%
residual activity [29]: 100%
residual activity [30]: 100%
residual activity [31]: 100%
residual activity [32]: 100%
residual activity [33]: 100%
residual activity [34]: 96%
residual activity [35]: 100%
residual activity [36]: 0%
residual activity [37]: 100%
residual activity [38]: 84%
inhibition [39]: 7.19%
residual activity [40]: 100%
residual activity [41]: 100%
residual activity [42]: 100%
residual activity [43]: 100%
residual activity [44]: 100%
